Data taken from article PMC9979715 (Blood Advances, 2022).

Target: T1, MAP2K7 (Homo sapiens, UniProt O14733)
T1 sequence (O14733 2-419): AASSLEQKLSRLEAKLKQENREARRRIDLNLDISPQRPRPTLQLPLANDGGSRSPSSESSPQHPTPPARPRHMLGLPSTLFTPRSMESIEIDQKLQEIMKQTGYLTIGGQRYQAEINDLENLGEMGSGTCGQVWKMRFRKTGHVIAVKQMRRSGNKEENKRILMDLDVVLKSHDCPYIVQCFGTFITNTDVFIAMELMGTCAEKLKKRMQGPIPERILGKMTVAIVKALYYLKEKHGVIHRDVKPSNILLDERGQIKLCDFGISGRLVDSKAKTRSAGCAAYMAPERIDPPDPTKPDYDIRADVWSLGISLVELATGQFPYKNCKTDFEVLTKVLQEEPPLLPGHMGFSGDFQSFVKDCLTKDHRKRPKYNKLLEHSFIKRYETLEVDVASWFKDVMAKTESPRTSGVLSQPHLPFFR
Assay: ADP-Glo kinase assay, purified human MAP2K7 with dead-JNK2 substrate and ATP
Format: biochemical

IC50: 160 nM
SMILES: CC(=O)c1cnc2ccc(-c3cc(Cl)c(O)c(Cl)c3)nc2c1N[C@H]1CC[C@H](CN(C)C)CC1 [OTSSP167]
